Consider 8 compounds from patent US7569695B2, “Dyes for the detection or quantification of desirable target molecules” (Enzo Life Sciences, Inc., priority 2005, dated 2009).

Molecules are shown by their SMILES.

One experiment addresses BSA (Bos taurus, UniProt P02769). Briefly: Fluorescence enhancement of dyes upon binding to a protein (BSA). To be noted: ratio of fluorescence (emission maxima) with BSA vs without, 1 μM dye, 150 μg BSA; for Fluorescence Enhancement with SDS: 10 mM TRIS pH 7.5, 0.05% SDS; for Fluorescence Enhancement without SDS: 10 mM TRIS pH 7.5, no SDS. Here is the method: Some of the dyes of the preceding examples were tested for changes in fluorescence upon binding to a protein (BSA). 1 μM of each dye was mixed with 150 μg of BSA in 10 mM TRIS (pH 7.5) with and without 0.05% SDS. Measurements were carried out on a standard fluorometer with and without BSA being present. Ratios were then calculated for the amount of fluorescence (emission maxima) in the presence of BSA compared to its absence.

Experiment [1] relates to 78 bp amplicon from the anti-sense C construct. The experiment can be described thus: Amplification of nucleic acids on the Light Cycler in the presence of dye (Example 33). It counts as biochemical. Here is the method: A target template was amplified on the Light Cycler (Roche) in the presence of various amounts of Dye 109 from Example 14. As a control, various amounts of SYBR Green (Molecular Probes, Eugene, Oreg.) were also included. The template was a 1:500 dilution of a 78 bp amplicon made in a previous reaction from the anti-sense C construct described in Liu et al. 1997 (J. Virol. 71: 4079-4085). A 2×PCR mix was made up of 20 mM Tris pH 8.3, 50 mM KCl, 4 mM MgCl2, 0.4 mM dCTP, 0.4 mM dGTP, 0.4 mM dATP, 0.8 mM dUTP, […] and […].
The Forward Primer sequence is comprised of 20 nucleotides: 5′ […] 3′ (SEQ ID NO: 1). It is an artificial sequence comprising a fusion of human Ul and HIV sequences. Bases 1-7 (CATGATC) of the first sequence are derived from plasmid pHSD-4 and comprise sequences from the human Ul gene. Bases […] (GATCCGGATGGGAGGTG) of the second sequence are derived from a region of the BAL strain of HIV containing the Tat/Rev splice acceptor site.
The Reverse Primer sequence is comprised of 22 nucleotides: 5′[…] (SEQ ID NO: 2). It is an artificial sequence comprising a fusion of human Ul and HIV sequences. Bases 1-11 (GCACATCCGGA) of the first sequence are derived from plasmid pHSD-4 and comprise sequences from the human Ul gene. Bases […] (GATCCGGATGGGAGGTG) of the second sequence are derived from a region of the BAL strain of HIV containing the Tat/Rev splice acceptor site.
The 78 bp amplicon synthesized with Forward Primer (SEQ ID NO: 1) and Reverse Primer (SEQ ID NO: 2) has the following sequence: 5′ […] 3′ (SEQ ID NO: 3). It is an artificial sequence comprising a fusion of human Ul and HIV sequences. Bases 1-11 (GCACATCCGGA) and 68-78 (TCCGGATGTGC) are derived from plasmid pHSD-4 and comprise sequences from the human Ul gene. Bases […] are derived from a region of the BAL strain of HIV containing the Tat/Rev splice acceptor site.
A master mixture was made up of: • 350 µl of 2×PCR mix described above • 14 µl of 25 mM MgCl2 • 122.5 µl of DEPC treated H2O • 14 ul of 1 u/l ung (Epicentre) • 7 µl of 10 mg/ml BSA (New England Biolabs, Beverly, Mass.) • 7 l Taq polymease (Perkin Elmer)+7 µl of TaqStart (Clontech) • 2.5 µl of target template+2.0 l of various dilutions of dyes were added to 15.5 µl of Master mixture, incubated at 45° C. for 10 minutes and then amplified by: • 1) Melting • 2 minutes @ 95° C. • 2) Cycling • a) Denaturation step: 0 seconds @ 95° C. • b) Annealing step: 5 seconds @ 69° C. for first cycle; subsequent cycles were each reduced by 0.5° C. until 65° C. was reached and all annealing steps in further cycles were carried out at this temperature • c) Extension step: 5 seconds @ 72° C. • 3) After completion of 56 cycles, all samples were maintained at 4° C. until analyzed.
After the amplification reactions were finished, the samples were analyzed by gel electrophoresis. For SYBR Green, the recommended reaction concentration is 1:10,000. As such, the amplification products shown in lanes 5 and 6 using 2 l of […] dilution in a 20 l reaction (final=1:8,000) is approximately representative of the product from the standard procedure. For Dye 109, the reactions are listed in terms of dilutions of a stock of Dye 109 with an OD reading of 200 taken at 495 nm. […] However, when lower dilutions of the dyes were added there was no inhibition of the process.

Experiment [2] has the same test system. Briefly: Amplification of nucleic acids in the presence of dye using a standard PCR machine (Example 34). It counts as biochemical. The settings on record: for amplicon synthesis (gel analysis, FIG. 2): 20 cycles. Here is the method: The experiment shown in Example 33 was repeated using a standard PCR machine for synthesis to see if the effects observed in Example 33 was dependent upon the rapid heating and cooling steps used in the Light Cycler.
A master mixture was made up of: • 500 µl of 2× PCR mix described in example 33 • 20 µl of 25 mM MgCl2 • 175 µl of DEPC treated H2O • 10 ul of 1 u/l ung (Epicentre) • 10 µl of 10 mg/ml BSA (New England Biolabs, Beverly, Mass.) • 10 l Taq polymease (Perkin Elmer)+10 µl of TaqStart (Clontech) PCR conditions were 2.5 µl of target template+2.0 l of dye was added to 15.5 µl of Master mixture incubated at 45° C. for 10 minutes and then amplified using cycles of: • a) 94° C. for 30 seconds • b) 65° C. for 30 seconds • c) 72° C. for 1 minute
A duplicate set of samples was amplified with one set being taken out after 20 cycles of amplification and the second set undergoing 40 cycles. […] The other effect previously observed was also seen, i.e. non-target amplicon synthesis seen in the no Dye reaction (lane 1) was reduced with the 1:200 dilution of SYBR Green and the 1:10 dilution of Dye 109 again repeating the results of Example 33.

BSA, sequence (P02769 25-607): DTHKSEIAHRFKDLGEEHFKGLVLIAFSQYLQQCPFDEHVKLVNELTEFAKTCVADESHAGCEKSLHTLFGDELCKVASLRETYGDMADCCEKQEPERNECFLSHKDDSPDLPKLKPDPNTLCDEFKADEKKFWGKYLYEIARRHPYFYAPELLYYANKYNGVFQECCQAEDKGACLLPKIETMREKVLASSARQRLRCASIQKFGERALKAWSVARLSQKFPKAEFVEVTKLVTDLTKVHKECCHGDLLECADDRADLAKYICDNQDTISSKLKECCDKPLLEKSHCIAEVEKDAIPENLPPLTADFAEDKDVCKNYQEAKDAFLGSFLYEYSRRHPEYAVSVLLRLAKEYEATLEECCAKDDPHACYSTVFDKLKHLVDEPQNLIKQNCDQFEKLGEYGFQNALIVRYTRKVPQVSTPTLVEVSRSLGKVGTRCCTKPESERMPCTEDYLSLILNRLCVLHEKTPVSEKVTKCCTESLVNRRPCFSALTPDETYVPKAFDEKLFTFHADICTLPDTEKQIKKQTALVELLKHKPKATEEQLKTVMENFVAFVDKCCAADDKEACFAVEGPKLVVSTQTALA

With `C[n+]1c(/C=C/c2cc3c4c(c2)CCCN4CCC3)sc2cc(S(=O)(=O)N3CCCCC3)ccc21` [Dye 101], on BSA, the “Fluorescence Enhancement with SDS” value is given as 140 and the “Fluorescence Enhancement without SDS” value is 33.
Turning to `CCn1c2ccccc2c2cc(/C=C/c3sc4cc(S(=O)(=O)N5CCCCC5)ccc4[n+]3CCCCS(=O)(=O)[O-])ccc21` [Dye 103], at BSA, the “Fluorescence Enhancement with SDS” value is 10 and the “Fluorescence Enhancement without SDS” value is given as “None”.
On to `CN(C)CCN(C)C1=C/C(=C\c2sc3cc(S(=O)(=O)N4CCCCC4)ccc3[n+]2C)c2ccccc2N1c1ccccc1` [Dye 109], for which the “synthesis of target derived amplicons compared to the reaction without any dye” value in experiment [1] (1:25 dilution of Dye 109 stock (OD 200 at 495 nm), lanes 11 and 12) was “enhancement of overall synthesis of target derived amplicons”. Moreover, the “synthesis of non-target derived amplicons” value in experiment [1] (1:25 dilution of Dye 109 stock, lanes 11 and 12) was “elimination or suppression of the synthesis of non-target derived amplicons”. In addition, the “detection of real time synthesis in the Light Cycler” value in experiment [1] (data not shown) is “could be used for this purpose”. Further, in experiment [1] (undiluted Dye 109 stock (OD 200 at 495 nm), 56 cycles), the “amplification (gel analysis, FIG. 1)” value was “strong inhibition of amplification”. Besides, the “amplicon synthesis (gel analysis, FIG. 2)” value in experiment [2] (1:10 dilution of Dye 109, lanes 12 and 13) was “a single discrete band”; in experiment [2] (1:15 dilution of Dye 109, lanes 14 and 15), “lesser amounts of synthesis”; in experiment [2] (1:20 and 1:25 dilutions of Dye 109, lanes 16/17 and 18/19), “faint bands”. The “non-target amplicon synthesis compared to the no Dye reaction” value in experiment [2] (40 cycles, 1:10 dilution of Dye 109) is given as “reduced”.
Regarding `CCCCCCN(CCCCCC)c1ccc(C=Cc2sc3cc(S(=O)(=O)N(CCCCCC)CCCCCC)ccc3[n+]2C)cc1` [Dye 113], at BSA, the “Fluorescence Enhancement with SDS” value is 33 and the “Fluorescence Enhancement without SDS” value is recorded as “None”.
With `CCCCCCN(CCCCCC)c1ccc(C=Cc2sc3cc(S(=O)(=O)N4CCCCC4)ccc3[n+]2CCCCS(=O)(=O)[O-])cc1` [Dye 114], at BSA, the “Fluorescence Enhancement with SDS” value is 70 and the “Fluorescence Enhancement without SDS” value is listed as 6.
Turning to `CCCCCCN(CCCCCC)c1ccc(C=Cc2cc[n+](CCCP(=O)(OCC)OCC)c3ccccc23)cc1.[Br-]` [Dye 115], on BSA, the “Fluorescence Enhancement with SDS” value is 78 and the “Fluorescence Enhancement without SDS” value is listed as 100.
On the same counts, the results for `CCOP(=O)(CCC[n+]1ccc(C=Cc2ccc3c(c2)c2ccccc2n3CC)c2ccccc21)OCC.[Br-]` [Dye 116] are “None” and 12.
For `CCCCN(CCCC)c1ccc(C=Cc2cc[n+](CCCP(=O)(OCC)OCC)c3ccccc23)cc1.[Br-]` [Dye 119], on BSA, the “Fluorescence Enhancement with SDS” value turned out to be 92 and the “Fluorescence Enhancement without SDS” value came to 95.
